In patent US7935815B2, “Imidazoyl pyridine compounds and salts thereof” (Eisai R&D Management Co., Ltd., priority 2007, dated 2011):
pIC50: −log10 of the molar value.

Tested on: Aβ42 production
Test: Quantification of Aβ peptide in culture of neurons from rat fetus brain (Aβ ELISA)
Assay type: cell-based
Conditions: Rattus norvegicus, Neuron, 72 h, rat primary neuronal culture (embryonic day 18 Wistar rat cerebral cortex); cultured three days after addition of compound; Aβx-42 ELISA of the medium; read-out: Aβ42 production reducing effect IC50
Procedure: Quantification of Aβ Peptide in Culture of Neurons from Rat Fetus Brain
(1) Rat Primary Neuronal Culture
Primary neuronal cultures were prepared from the cerebral cortex of embryonic day 18 Wistar rats (Charles River Japan, Yokohama, Japan). Specifically, the embryos were aseptically removed from pregnant rats under ether anesthesia. The brain was isolated from the embryo and immersed in an ice-cold L-15 medium (Invitrogen Corp. Cat #11415-064, Carlsbad, Calif., USA, or SIGMA L1518, for example). The cerebral cortex was collected from the isolated brain under a stereoscopic microscope. The cerebral cortex fragments collected were enzymatically treated in an enzyme solution containing 0.25% trypsin (Invitrogen Corp. Cat #15050-065, Carlsbad, Calif., USA) and 0.01% DNase (Sigma D5025, St. Louis, Mo., USA) at 37° C. for 30 minutes to disperse the cells. Here, the enzymatic reaction was stopped by adding inactivated horse serum to the solution. The enzymatically treated solution was centrifuged at 1,500 rpm for five minutes to remove the supernatant. 5 to 10 ml of a medium was added to the resulting cell mass. Neurobasal medium (Invitrogen Corp. Cat #21103-049, Carlsbad, Calif., USA) supplemented with 2% B27 supplement (Invitrogen Corp. Cat #17504-044, Carlsbad, Calif., USA), 25 μM 2-mercaptoethanol (2-ME, WAKO Cat #139-06861, Osaka, Japan), 0.5 mM L-glutamine (Invitrogen Corp. Cat #25030-081, Carlsbad, Calif., USA), and Antibiotics-Antimycotics (Invitrogen Corp. Cat #15240-062, Carlsbad, Calif., USA) was used as the medium (Neurobasal/B27/2-ME). However, the above Neurobasal medium not supplemented with 2-ME (Neurobasal/B27) was used for the assay. The cells were redispersed by mild pipetting of the cell mass to which the medium was added. The cell dispersion was filtered through a 40-μm nylon mesh (Cell Strainer, Cat #35-2340, Becton Dickinson Labware, Franklin Lakes, N.J., USA) to remove the remaining cell mass, and thus a neuronal cell suspension was obtained. The neuronal cell suspension was diluted with the medium and then plated in a volume of 100 μl/well at an initial cell density of 5×10^5 cells/cm^2 in a 96-well polystyrene culture plate pre-coated with poly-L or D-lysine (Falcon Cat #35-3075, Becton Dickinson Labware, Franklin Lakes, N.J., USA coated with poly-L-lysine using the method shown below, or BIOCOAT™ cell environments Poly-D-lysine cell ware 96-well plate, Cat #35-6461, Becton Dickinson Labware, Franklin Lakes, N.J., USA). Poly-L-lysine coating was carried out as follows. 100 μg/ml of a poly-L-lysine (SIGMA P2636, St. Louis, Mo., USA) solution was aseptically prepared with a 0.15 M borate buffer (pH 8.5). 100 μl/well of the solution was added to the 96-well polystyrene culture plate and incubated at room temperature for one or more hours or at 4° C. overnight or longer. The coated 96-well polystyrene culture plate was washed with sterile water four or more times, and then dried or rinsed with, for example, sterile PBS or medium, and used for cell plating. The plated cells were cultured in the culture plate at 37° C. in 5% CO2-95% air for one day. Then, the total amount of the medium was replaced with a fresh Neurobasal™/B27/2-ME medium, and then the cells were cultured for further three days.
The drug was added to the culture plate on Day 4 of culture as follows. The total amount of the medium was removed from the wells, and 180 μl/well of Neurobasal medium not containing 2-ME and containing 2% B-27 (Neurobasal/B27) was added thereto. A solution of the test compound in dimethyl sulfoxide (hereinafter abbreviated as DMSO) was diluted with Neurobasal/B27 at 10-fold of the final concentration. 20 μl/well of the dilution was added to and sufficiently mixed with the medium. The final DMSO concentration was 1% or less. Only DMSO was added to the control group.
The cells were cultured for three days after addition of the compound, and the total amount of the medium was collected. […]

SMILES	pIC50
CCCCC(O)c1ccc([C@H]2CCCn3nc(/C=C/c4ccc(-n5cnc(C)c5)c(OC)c4)nc32)cc1 (single isomer, unassigned) [Example 19, 1-{4-{2-{(E)-2-[3-methoxy-4-(4-methyl-1H-imidazol-1-yl)phenyl]vinyl}-5,6,7,8-tetrahydro[1,2,4]triazolo[1,5-a]pyridin-8-yl}phenyl}pentan-1-ol]	7.37
COc1cc(/C=C/c2nc3n(n2)CCC[C@]3(O)c2ccc(C(C)C)cc2)ccc1-n1cnc(C)c1 (single isomer, unassigned) [Example 55, (−)-8-(4-isopropylphenyl)-2-{(E)-2-[3-methoxy-4-(4-methyl-1H-imidazol-1-yl)phenyl]vinyl}-5,6,7,8-tetrahydro[1,2,4]triazolo[1,5-a]pyridin-8-ol]	7.55
COc1cc(/C=C/c2nc3n(n2)CCCC3(O)c2ccccc2F)ccc1-n1cnc(C)c1 (single isomer, unassigned) [Example 59, (−)-8-(2-fluorophenyl)-2-{(E)-2-[3-methoxy-4-(4-methyl-1H-imidazol-1-yl)phenyl]vinyl}-5,6,7,8-tetrahydro-[1,2,4]triazolo[1,5-a]pyridin-8-ol]	7.35
COc1cc(/C=C/c2nc3n(n2)CCC[C@]3(C#N)c2cc(F)c(F)c(F)c2)ccc1-n1cnc(C)c1 (single isomer, unassigned) [Example 72, (−)-2-{(E)-2-[3-methoxy-4-(4-methyl-1H-imidazol-1-yl)phenyl]vinyl}-8-(3,4,5-trifluorophenyl)-5,6,7,8-tetrahydro[1,2,4]triazolo[1,5-a]pyridine-8-carbonitrile]	7.59
COc1cc(/C=C(\F)c2nc3n(n2)CCC[C@]3(O)c2cc(F)c(F)c(F)c2)ccc1-n1cnc(C)c1 (single isomer, unassigned) [Example 94, (−)-2-{(Z)-1-fluoro-2-[3-methoxy-4-(4-methyl-1H-imidazol-1-yl)phenyl]vinyl}-8-(3,4,5-trifluorophenyl)-5,6,7,8-tetrahydro[1,2,4]triazolo[1,5-a]pyridin-8-ol]	7.28
COc1cc(/C=C/c2nc3n(n2)CCC[C@]3(O)c2cc(F)c(F)c(F)c2)c(F)cc1-n1cnc(C)c1 (single isomer, unassigned) [Example 96, (−)-2-{(E)-2-[2-fluoro-5-methoxy-4-(4-methyl-1H-imidazol-1-yl)phenyl]vinyl}-8-(3,4,5-trifluorophenyl)-5,6,7,8-tetrahydro[1,2,4]triazolo[1,5-a]pyridin-8-ol]	7.20
COc1cc(/C=C/c2nc3n(n2)CCC[C@H]3C2CCCCC2)ccc1-n1cnc(C)c1 (single isomer, unassigned) [Example 114, (−)-8-cyclohexyl-2-{(E)-2-[3-methoxy-4-(4-methyl-1H-imidazol-1-yl)phenyl]vinyl}-5,6,7,8-tetrahydro[1,2,4]triazolo[1,5-a]pyridine]	7.29
COc1cc(/C=C/c2nc3n(n2)CCC[C@@H]3C2CCOCC2)ccc1-n1cnc(C)c1 (single isomer, unassigned) [Example 116, (−)-2-{(E)-2-[3-methoxy-4-(4-methyl-1H-imidazol-1-yl)phenyl]vinyl}-8-(tetrahydropyran-4-yl)-5,6,7,8-tetrahydro[1,2,4]triazolo[1,5-a]pyridine]	6.76
COc1cc(/C=C/c2nc3n(n2)CCC[C@@H]3[C@H]2CCCN2Cc2ccccc2)ccc1-n1cnc(C)c1 (single isomer, unassigned) [Example 133, (−)-8-(1-benzylpyrrolidin-2-yl)-2-{(E)-2-[3-methoxy-4-(4-methyl-1H-imidazol-1-yl)phenyl]vinyl}-5,6,7,8-tetrahydro[1,2,4]triazolo[1,5-a]pyridine]	7.19
COc1cc(/C=C/c2nc3n(n2)CCC3c2ccccc2)ccc1-n1cnc(C)c1 (single isomer, unassigned) [Example 141, (−)-2-{(E)-2-[3-methoxy-4-(4-methyl-1H-imidazol-1-yl)phenyl]vinyl}-7-phenyl-6,7-dihydro-5H-pyrrolo[1,2-b][1,2,4]triazole]	7.44
